This note sets out measurements from patent US8022206B2 (OSI Pharmaceuticals, LLC, priority 2008, dated 2011).

Structures are written as SMILES. pIC50: −log10 of the molar value.

A word on the pIC50: it is the IC50 on a negative log10 scale, so that one unit is a factor of ten.

In one assay the target is MET (human) (Homo sapiens, UniProt P08581). Description: MET (human) AlphaScreen kinase assay, Km of ATP. Type of assay: biochemical. The settings on record: AlphaScreen, Km of ATP; read-out: Met biochemical IC50. In a few lines: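 Human MET at lot-optimised concentration in 50 mM Tris pH 7.4 buffer with 1 mM DTT, compound at 1% DMSO final; enzyme starts the reaction, 60 min at RT.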
Background: Alpha assays give light when donor and acceptor beads are brought close together.

The target in the next assay is RON (human) (Homo sapiens, UniProt Q04912). Description: RON (human) AlphaScreen kinase assay, Km of ATP. The class given is biochemical. As to conditions: AlphaScreen, Km of ATP; read-out: RON biochemical IC50. In a few lines: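 Detection used PT66 AlphaScreen beads added in Tris pH 7.5/NaCl/EDTA/BSA buffer, read after 1 h incubation. Vehicle-only DMSO wells served as controls.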
RON (human), sequence (Q04912 25-1400): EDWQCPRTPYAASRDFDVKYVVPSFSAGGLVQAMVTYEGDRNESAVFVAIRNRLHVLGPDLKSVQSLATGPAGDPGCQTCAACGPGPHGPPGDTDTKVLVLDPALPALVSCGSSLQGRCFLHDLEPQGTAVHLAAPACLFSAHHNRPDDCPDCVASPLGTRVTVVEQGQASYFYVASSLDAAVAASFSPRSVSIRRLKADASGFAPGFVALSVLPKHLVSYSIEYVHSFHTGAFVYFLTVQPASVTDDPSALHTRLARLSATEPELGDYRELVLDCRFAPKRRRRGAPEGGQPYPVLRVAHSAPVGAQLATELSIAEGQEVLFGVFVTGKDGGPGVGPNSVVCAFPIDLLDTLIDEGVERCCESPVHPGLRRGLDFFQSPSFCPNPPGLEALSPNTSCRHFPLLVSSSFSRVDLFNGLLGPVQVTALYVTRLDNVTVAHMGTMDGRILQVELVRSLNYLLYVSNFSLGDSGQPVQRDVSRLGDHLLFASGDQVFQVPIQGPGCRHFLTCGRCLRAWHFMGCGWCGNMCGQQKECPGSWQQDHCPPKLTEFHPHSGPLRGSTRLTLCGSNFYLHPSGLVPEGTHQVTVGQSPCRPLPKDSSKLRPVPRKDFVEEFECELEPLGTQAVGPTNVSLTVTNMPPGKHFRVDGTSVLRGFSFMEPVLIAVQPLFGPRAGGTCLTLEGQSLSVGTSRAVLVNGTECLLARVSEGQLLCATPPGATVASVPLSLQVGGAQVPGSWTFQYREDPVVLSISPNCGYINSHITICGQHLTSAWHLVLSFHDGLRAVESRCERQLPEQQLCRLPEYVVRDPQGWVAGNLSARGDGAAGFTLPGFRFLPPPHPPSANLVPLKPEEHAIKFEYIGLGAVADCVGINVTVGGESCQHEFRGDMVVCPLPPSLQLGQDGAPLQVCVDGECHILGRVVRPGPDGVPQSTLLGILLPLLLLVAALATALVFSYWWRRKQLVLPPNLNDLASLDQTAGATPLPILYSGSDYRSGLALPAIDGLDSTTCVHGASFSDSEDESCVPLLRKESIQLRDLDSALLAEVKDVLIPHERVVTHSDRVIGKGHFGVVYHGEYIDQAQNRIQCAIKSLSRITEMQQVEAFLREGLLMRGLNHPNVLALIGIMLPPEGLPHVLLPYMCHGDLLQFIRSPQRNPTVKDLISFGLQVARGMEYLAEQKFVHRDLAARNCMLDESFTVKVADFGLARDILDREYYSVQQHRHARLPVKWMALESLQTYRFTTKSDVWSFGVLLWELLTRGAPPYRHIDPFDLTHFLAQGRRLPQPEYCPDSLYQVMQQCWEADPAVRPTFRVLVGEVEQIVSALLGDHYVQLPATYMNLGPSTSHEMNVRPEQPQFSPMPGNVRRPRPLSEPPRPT

MET (human), sequence (P08581 25-1390): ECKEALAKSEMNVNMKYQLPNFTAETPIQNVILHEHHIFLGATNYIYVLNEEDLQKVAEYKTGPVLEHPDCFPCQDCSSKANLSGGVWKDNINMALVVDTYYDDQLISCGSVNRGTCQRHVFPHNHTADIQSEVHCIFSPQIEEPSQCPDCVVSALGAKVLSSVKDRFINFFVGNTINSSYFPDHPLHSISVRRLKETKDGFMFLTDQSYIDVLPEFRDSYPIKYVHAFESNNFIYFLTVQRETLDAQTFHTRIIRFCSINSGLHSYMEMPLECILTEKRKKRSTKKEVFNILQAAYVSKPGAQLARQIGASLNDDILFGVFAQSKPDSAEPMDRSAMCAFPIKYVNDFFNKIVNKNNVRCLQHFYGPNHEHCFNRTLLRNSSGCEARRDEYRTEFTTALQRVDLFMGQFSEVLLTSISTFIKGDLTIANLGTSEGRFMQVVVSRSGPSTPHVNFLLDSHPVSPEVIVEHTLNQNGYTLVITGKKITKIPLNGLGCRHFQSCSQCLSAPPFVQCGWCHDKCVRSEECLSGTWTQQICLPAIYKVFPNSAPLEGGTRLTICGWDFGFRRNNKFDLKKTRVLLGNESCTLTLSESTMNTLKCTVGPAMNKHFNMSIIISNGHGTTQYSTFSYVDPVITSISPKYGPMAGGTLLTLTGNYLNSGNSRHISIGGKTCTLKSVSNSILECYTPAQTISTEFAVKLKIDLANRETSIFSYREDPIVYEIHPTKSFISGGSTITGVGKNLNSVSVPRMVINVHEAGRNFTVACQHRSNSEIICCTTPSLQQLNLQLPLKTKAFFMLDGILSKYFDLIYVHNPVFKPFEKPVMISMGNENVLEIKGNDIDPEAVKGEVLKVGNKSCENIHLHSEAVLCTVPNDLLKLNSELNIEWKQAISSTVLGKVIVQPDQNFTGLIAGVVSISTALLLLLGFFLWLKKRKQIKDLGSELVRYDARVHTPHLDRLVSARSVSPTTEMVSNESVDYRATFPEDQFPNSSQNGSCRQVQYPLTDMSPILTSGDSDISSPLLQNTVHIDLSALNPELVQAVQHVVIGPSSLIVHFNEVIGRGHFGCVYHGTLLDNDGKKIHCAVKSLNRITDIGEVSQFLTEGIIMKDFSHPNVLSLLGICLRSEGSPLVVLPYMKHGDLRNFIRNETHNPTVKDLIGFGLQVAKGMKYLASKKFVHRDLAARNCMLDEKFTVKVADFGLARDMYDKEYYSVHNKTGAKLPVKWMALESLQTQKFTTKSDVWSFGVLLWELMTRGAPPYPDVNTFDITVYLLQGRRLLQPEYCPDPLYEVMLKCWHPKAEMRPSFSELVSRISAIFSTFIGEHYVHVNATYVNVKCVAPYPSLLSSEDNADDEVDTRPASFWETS

As for `CC(Oc1c(N)ncc2c(-c3cnn(C4CCNCC4)c3)coc12)c1cccc(Cl)c1` (centres unmarked) [Example 385, 7-[1-(3-Chlorophenyl)ethoxy]-3-(1-piperidin-4-yl-1H-pyrazol-4-yl)furo[3,2-c]pyridin-6-ylamine], the pIC50 on MET (human) was over 6.30; on RON (human), 5.30 to 6.30.
In the same order, the values of `CC(Oc1c(N)ncc2c(-c3cnn(C4CCNCC4)c3)coc12)c1ccccc1` (centres unmarked) [Example 386, 7-(1-Phenylethoxy)-3-(1-piperidin-4-yl-1H-pyrazol-4-yl)furo[3,2-c]pyridin-6-ylamine] are 5.30 to 6.30 and 5.30 to 6.30.
As to `CC(Oc1c(N)ncc2c(-c3cnn(C4CCNCC4)c3)coc12)c1cccc(Br)c1` (centres unmarked) [Example 387, 7-[1-(3-Bromophenyl)ethoxy]-3-(1-piperidin-4-yl-1H-pyrazol-4-yl)furo[3,2-c]pyridin-6-ylamine], the figures for the pIC50 at MET (human) and on RON (human) were over 6.30 and 5.30 to 6.30, respectively.
In the case of `CC(Oc1c(N)ncc2c(-c3cnn(C4CCNCC4)c3)coc12)c1ccc(Br)cc1` (centres unmarked) [Example 388, 7-[1-(4-Bromophenyl)ethoxy]-3-(1-piperidin-4-yl-1H-pyrazol-4-yl)furo[3,2-c]pyridin-6-ylamine], the negative logarithm of the IC50 (pIC50) at MET (human) was over 6.30; on RON (human), 5.30 to 6.30.
In the same order, the values of `Nc1ncc2c(-c3cnn(C4CCNCC4)c3)coc2c1OC1CCCc2cccc(Cl)c21` (centres unmarked) [Example 389, 7-(8-Chloro-1,2,3,4-tetrahydronaphthalen-1-yloxy)-3-(1-piperidin-4-yl-1H-pyrazol-4-yl)furo[3,2-c]pyridin-6-ylamine] are 5.30 to 6.30 and 5.30 to 6.30.
Turning to `Nc1ncc2c(-c3cnn(C4CCNCC4)c3)coc2c1OC1CCCc2c(F)cccc21` (centres unmarked) [Example 390, 7-(5-Fluoro-1,2,3,4-tetrahydronaphthalen-1-yloxy)-3-(1-piperidin-4-yl-1H-pyrazol-4-yl)furo[3,2-c]pyridin-6-ylamine], the pIC50 on MET (human) and on RON (human) was over 6.30 throughout.
For the compound `Nc1ncc2c(-c3cnn(C4CCNCC4)c3)coc2c1O[C@@H](c1ccccc1)C(F)(F)F` [Example 391, 3-(1-Piperidin-4-yl-1H-pyrazol-4-yl)-7-((S)-2,2,2-trifluoro-1-phenylethoxy)furo[3,2-c]pyridin-6-ylamine], the figures for the pIC50 at MET (human) and at RON (human) were over 6.30 and 5.30 to 6.30, respectively.
Consider `Nc1ncc2c(-c3cnn(C4CCNCC4)c3)coc2c1O[C@H](c1ccccc1)C(F)(F)F` [Example 392, 3-(1-Piperidin-4-yl-1H-pyrazol-4-yl)-7-((R)-2,2,2-trifluoro-1-phenylethoxy)furo[3,2-c]pyridin-6-ylamine], for which the pIC50 on MET (human) is over 6.30; on RON (human), 5.30 to 6.30.
In the same order, the values of `CC(Oc1c(N)ncc2c(-c3cnn(C4CCNCC4)c3)coc12)c1cccc(C#N)c1` (centres unmarked) [Example 393, 3-{1-[6-Amino-3-(1-piperidin-4-yl-1H-pyrazol-4-yl)furo[3,2-c]pyridin-7-yloxy]ethyl}benzonitrile] are over 6.30 and 5.30 to 6.30.
With `CC(Oc1c(N)ncc2c(-c3cnn(C4CCNCC4)c3)coc12)c1ccc(C#N)cc1` (centres unmarked) [Example 394, 4-{1-[6-Amino-3-(1-piperidin-4-yl-1H-pyrazol-4-yl)furo[3,2-c]pyridin-7-yloxy]ethyl}benzonitrile], the pIC50 on MET (human) is over 6.30; at RON (human), 5.30 to 6.30.
For `C[C@H](Oc1c(N)ncc2c(-c3cnn(C4CCNCC4)c3)coc12)c1ccccn1` [Example 395, 3-(1-Piperidin-4-yl-1H-pyrazol-4-yl)-7-((S)-1-pyridin-2-yl-ethoxy)furo[3,2-c]pyridin-6-ylamine], the pIC50 on MET (human) and at RON (human) was 5.30 to 6.30 each time.
`C[C@H](Oc1c(N)ncc2c(-c3cnn(C4CCNCC4)c3)coc12)c1ccncc1` [Example 396, 3-(1-Piperidin-4-yl-1H-pyrazol-4-yl)-7-((S)-1-pyridin-4-yl-ethoxy)furo[3,2-c]pyridin-6-ylamine]: the results for the pIC50 on MET (human) and at RON (human) were over 6.30 and 5.30 to 6.30, respectively.
Regarding `C[C@@H](Oc1c(N)ncc2c(-c3cnn(C4CCNCC4)c3)coc12)c1ccncc1` [Example 397, 3-(1-Piperidin-4-yl-1H-pyrazol-4-yl)-7-((R)-1-pyridin-4-yl-ethoxy)furo[3,2-c]pyridin-6-ylamine], the pIC50 on MET (human) and at RON (human) was 5.30 to 6.30 in each case.
For `CC(Oc1c(N)ncc2c(-c3cnn(C4CCNCC4)c3)coc12)c1cccnc1` (centres unmarked) [Example 398, 3-(1-Piperidin-4-yl-1H-pyrazol-4-yl)-7-(1-pyridin-3-ylethoxy)furo[3,2-c]pyridin-6-ylamine], the pIC50 at MET (human) and at RON (human) was 5.30 to 6.30 each time.
On to `C[C@@H](Oc1c(N)ncc2c(-c3cnn(C4CCNCC4)c3)coc12)c1ccccn1` [Example 399, 3-(1-Piperidin-4-yl-1H-pyrazol-4-yl)-7-((R)-1-pyridin-2-yl-ethoxy)furo[3,2-c]pyridin-6-ylamine], for which the pIC50 on MET (human) and at RON (human) was 5.30 to 6.30 in each case.
Regarding `CC(Oc1c(N)ncc2c(-c3cnn(C4CCNCC4)c3)coc12)c1ccccc1Br` (centres unmarked) [Example 400, 7-[1-(2-Bromophenyl)ethoxy]-3-(1-piperidin-4-yl-1H-pyrazol-4-yl)furo[3,2-c]pyridin-6-ylamine], the negative logarithm of the IC50 (pIC50) at MET (human) is over 6.30; on RON (human), 5.30 to 6.30.
`CC(Oc1c(N)ncc2c(-c3cnn(C4CCNCC4)c3)coc12)c1c(F)cccc1Cl` (centres unmarked) [Example 401, 7-[1-(2-Chloro-6-fluorophenyl)ethoxy]-3-(1-piperidin-4-yl-1H-pyrazol-4-yl)furo[3,2-c]pyridin-6-ylamine]: the values for the pIC50 at MET (human) and on RON (human) were over 6.30 and 5.30 to 6.30, respectively.
For the compound `Cc1cccc(C)c1C(C)Oc1c(N)ncc2c(-c3cnn(C4CCNCC4)c3)coc12` (centres unmarked) [Example 402, 7-[1-(2,6-Dimethylphenyl)ethoxy]-3-(1-piperidin-4-yl-1H-pyrazol-4-yl)furo[3,2-c]pyridin-6-ylamine], the pIC50 at MET (human) and on RON (human) was 5.30 to 6.30 each time.
`CC(Oc1c(N)ncc2c(-c3cnn(C4CCNCC4)c3)coc12)c1nc2ccccc2[nH]1` (centres unmarked) [Example 403, 7-[1-(1H-Benzimidazol-2-yl)ethoxy]-3-(1-piperidin-4-yl-1H-pyrazol-4-yl)furo[3,2-c]pyridin-6-ylamine]: the pIC50 on MET (human) and on RON (human) was 5.30 to 6.30 each time.
Turning to `CC(Oc1c(N)ncc2c(-c3cnn(C4CCNCC4)c3)coc12)c1nc2ccccc2s1` (centres unmarked) [Example 404, 7-(1-Benzothiazol-2-ylethoxy)-3-(1-piperidin-4-yl-1H-pyrazol-4-yl)furo[3,2-c]pyridin-6-ylamine], the pIC50 on MET (human) and on RON (human) was 5.30 to 6.30 in each case.
Turning to `CC(Cc1ccccc1)Oc1c(N)ncc2c(-c3cnn(C4CCNCC4)c3)coc12` (centres unmarked) [Example 405, 7-(1-Methyl-2-phenylethoxy)-3-(1-piperidin-4-yl-1H-pyrazol-4-yl)furo[3,2-c]pyridin-6-ylamine], the pIC50 on MET (human) and at RON (human) was over 6.30 in each case.
In the case of `COc1ccccc1CC(C)Oc1c(N)ncc2c(-c3cnn(C4CCNCC4)c3)coc12` (centres unmarked) [Example 406, 7-[2-(2-Methoxyphenyl)-1-methylethoxy]-3-(1-piperidin-4-yl-1H-pyrazol-4-yl)furo[3,2-c]pyridin-6-ylamine], the pIC50 at MET (human) and on RON (human) was over 6.30 throughout.
Consider `Nc1ncc2c(-c3cnn(C4CCNCC4)c3)coc2c1O[C@H]1CCC[C@H]1c1ccccc1` [Example 407], for which the pIC50 is over 6.30 on MET (human) and 5.30 to 6.30 on RON (human).
As to `Nc1ncc2c(-c3cnn(C4CCNCC4)c3)coc2c1O[C@H]1CCC[C@H]1c1cccc(F)c1` [Example 408], the negative-log IC50 (pIC50) on MET (human) and at RON (human) was 5.30 to 6.30 throughout.
With `Nc1ncc2c(-c3cnn(C4CCNCC4)c3)coc2c1O[C@H]1CCCC[C@H]1c1ccccc1` [Example 409], the pIC50 on MET (human) and at RON (human) was 5.30 to 6.30 each time.
As for `COC(=O)c1cccc(C(C)Oc2c(N)ncc3c(-c4cnn(C5CCNCC5)c4)coc23)c1` (centres unmarked) [Example 410, 3-{1-[6-Amino-3-(1-piperidin-4-yl-1H-pyrazol-4-yl)furo[3,2-c]pyridin-7-yloxy]ethyl}benzoic acid methyl ester], the pIC50 on MET (human) and on RON (human) was 5.30 to 6.30 in each case.
As to `CC(Oc1c(N)ncc2c(-c3cnn(C4CCNCC4)c3)coc12)c1cccc(C(N)=O)c1` (centres unmarked) [Example 411, 3-{1-[6-Amino-3-(1-piperidin-4-yl-1H-pyrazol-4-yl)furo[3,2-c]pyridin-7-yloxy]ethyl}benzamide], the pIC50 on MET (human) and at RON (human) was 5.30 to 6.30 each time.
As for `CNC(=O)c1cccc(C(C)Oc2c(N)ncc3c(-c4cnn(C5CCNCC5)c4)coc23)c1` (centres unmarked) [Example 412, 3-{1-[6-Amino-3-(1-piperidin-4-yl-1H-pyrazol-4-yl)furo[3,2-c]pyridin-7-yloxy]ethyl}-N-methylbenzamide], the pIC50 at MET (human) and on RON (human) was 5.30 to 6.30 each time.
For `CC(Oc1c(N)ncc2c(-c3cnn(C4CCNCC4)c3)coc12)c1ncc(C(F)(F)F)cc1Cl` (centres unmarked) [Example 413, 7-[1-(3-Chloro-5-trifluoromethylpyridin-2-yl)ethoxy]-3-(1-piperidin-4-yl-1H-pyrazol-4-yl)furo[3,2-c]pyridin-6-ylamine], the negative-log IC50 (pIC50) at MET (human) and on RON (human) was 5.30 to 6.30 each time.
For the compound `C[C@@H](Cc1ccccc1)Oc1c(N)ncc2c(-c3cnn(C4CCNCC4)c3)coc12` [Example 414, 7-((S)-1-Methyl-2-phenylethoxy)-3-(1-piperidin-4-yl-1H-pyrazol-4-yl)furo[3,2-c]pyridin-6-ylamine], the pIC50 at MET (human) was over 6.30; on RON (human), 5.30 to 6.30.
Consider `C[C@H](Cc1ccccc1)Oc1c(N)ncc2c(-c3cnn(C4CCNCC4)c3)coc12` [Example 415, 7-((R)-1-Methyl-2-phenylethoxy)-3-(1-piperidin-4-yl-1H-pyrazol-4-yl)furo[3,2-c]pyridin-6-ylamine], for which the pIC50 on MET (human) and on RON (human) was 5.30 to 6.30 throughout.
